Test results reported in ChEMBL document CHEMBL6182864, “Design, synthesis and biological evaluation of 3-amino-6-(2-hydroxyphenyl)pyridazin-4-aryl derivatives as SMARCA2/4 degraders” (Eur J Med Chem, 2025).
Active and inactive are the calls of the source. The rule behind the calls is not given here.

Legend:
MV4-11 [1] = experiment: cells; conditions: Homo sapiens, MV4-11, 72 h
MOLM-13 [2] = experiment: cells; conditions: Homo sapiens, MOLM-13, 72 h
MV4-11 [3] = experiment: Induction of apoptosis in human MV4-11 cells assessed as viable cells at 100 nM measured after 72 hrs by Annexin-V-FITC/propidium iodide staining based flow cytometry (reference value: 89.49%); type: functional; conditions: read-out: Activity
MV4-11 [4] = experiment: Induction of apoptosis in human MV4-11 cells assessed as early apoptotic cells at 100 nM measured after 72 hrs by Annexin-V-FITC/propidium iodide staining based flow cytometry (reference value: 9.32%); type: functional
MV4-11 [5] = experiment: Induction of apoptosis in human MV4-11 cells assessed as late apoptotic cells at 100 nM measured after 72 hrs by Annexin-V-FITC/propidium iodide staining based flow cytometry (reference value: 1.09%); type: functional
MV4-11 [6] = experiment: Induction of apoptosis in human MV4-11 cells assessed as necrotic cells at 100 nM measured after 72 hrs by Annexin-V-FITC/propidium iodide staining based flow cytometry (reference value: 0.1%); type: functional
MOLM-13 [7] = experiment: Induction of apoptosis in human MOLM-13 cells assessed as viable cells at 100 nM measured after 72 hrs by Annexin-V-FITC/propidium iodide staining based flow cytometry (reference value: 90.28%); type: functional; conditions: read-out: Activity
MOLM-13 [8] = experiment: Induction of apoptosis in human MOLM-13 cells assessed as early apoptotic cells at 100 nM measured after 72 hrs by Annexin-V-FITC/propidium iodide staining based flow cytometry (reference value: 5.57%); type: functional
MOLM-13 [9] = experiment: Induction of apoptosis in human MOLM-13 cells assessed as late apoptotic cells at 100 nM measured after 72 hrs by Annexin-V-FITC/propidium iodide staining based flow cytometry (reference value: 3.87%); type: functional
MOLM-13 [10] = experiment: Induction of apoptosis in human MOLM-13 cells assessed as necrotic cells at 100 nM measured after 72 hrs by Annexin-V-FITC/propidium iodide staining based flow cytometry (reference value: 0.28%); type: functional
MV4-11 [11] = experiment: Induction of apoptosis in human MV4-11 cells assessed as viable cells at 300 nM measured after 72 hrs by Annexin-V-FITC/propidium iodide staining based flow cytometry (reference value: 89.49%); type: functional; conditions: read-out: Activity
MV4-11 [12] = experiment: Induction of apoptosis in human MV4-11 cells assessed as early apoptotic cells at 300 nM measured after 72 hrs by Annexin-V-FITC/propidium iodide staining based flow cytometry (reference value: 9.32%); type: functional
MV4-11 [13] = experiment: Induction of apoptosis in human MV4-11 cells assessed as late apoptotic cells at 300 nM measured after 72 hrs by Annexin-V-FITC/propidium iodide staining based flow cytometry (reference value: 1.09%); type: functional
MV4-11 [14] = experiment: Induction of apoptosis in human MV4-11 cells assessed as necrotic cells at 300 nM measured after 72 hrs by Annexin-V-FITC/propidium iodide staining based flow cytometry (reference value: 0.1%); type: functional
MOLM-13 [15] = experiment: Induction of apoptosis in human MOLM-13 cells assessed as viable cells at 300 nM measured after 72 hrs by Annexin-V-FITC/propidium iodide staining based flow cytometry (reference value: 90.28%); type: functional; conditions: read-out: Activity
MOLM-13 [16] = experiment: Induction of apoptosis in human MOLM-13 cells assessed as early apoptotic cells at 300 nM measured after 72 hrs by Annexin-V-FITC/propidium iodide staining based flow cytometry (reference value: 5.57%); type: functional
MOLM-13 [17] = experiment: Induction of apoptosis in human MOLM-13 cells assessed as late apoptotic cells at 300 nM measured after 72 hrs by Annexin-V-FITC/propidium iodide staining based flow cytometry (reference value: 3.87%); type: functional
MOLM-13 [18] = experiment: Induction of apoptosis in human MOLM-13 cells assessed as necrotic cells at 300 nM measured after 72 hrs by Annexin-V-FITC/propidium iodide staining based flow cytometry (reference value: 0.28%); type: functional
MV4-11 [19] = experiment: Induction of apoptosis in human MV4-11 cells assessed as viable cells at 1000 nM measured after 72 hrs by Annexin-V-FITC/propidium iodide staining based flow cytometry (reference value: 89.49%); type: functional; conditions: read-out: Activity
MV4-11 [20] = experiment: Induction of apoptosis in human MV4-11 cells assessed as early apoptotic cells at 1000 nM measured after 72 hrs by Annexin-V-FITC/propidium iodide staining based flow cytometry (reference value: 9.32%); type: functional
MV4-11 [21] = experiment: Induction of apoptosis in human MV4-11 cells assessed as late apoptotic cells at 1000 nM measured after 72 hrs by Annexin-V-FITC/propidium iodide staining based flow cytometry (reference value: 1.09%); type: functional
MV4-11 [22] = experiment: Induction of apoptosis in human MV4-11 cells assessed as necrotic cells at 1000 nM measured after 72 hrs by Annexin-V-FITC/propidium iodide staining based flow cytometry (reference value: 0.1%); type: functional
MOLM-13 [23] = experiment: Induction of apoptosis in human MOLM-13 cells assessed as viable cells at 1000 nM measured after 72 hrs by Annexin-V-FITC/propidium iodide staining based flow cytometry (reference value: 90.28%); type: functional; conditions: read-out: Activity
MOLM-13 [24] = experiment: Induction of apoptosis in human MOLM-13 cells assessed as early apoptotic cells at 1000 nM measured after 72 hrs by Annexin-V-FITC/propidium iodide staining based flow cytometry (reference value: 5.57%); type: functional
MOLM-13 [25] = experiment: Induction of apoptosis in human MOLM-13 cells assessed as late apoptotic cells at 1000 nM measured after 72 hrs by Annexin-V-FITC/propidium iodide staining based flow cytometry (reference value: 3.87%); type: functional
MOLM-13 [26] = experiment: Induction of apoptosis in human MOLM-13 cells assessed as necrotic cells at 1000 nM measured after 72 hrs by Annexin-V-FITC/propidium iodide staining based flow cytometry (reference value: 0.28%); type: functional
MOLM-13 [27] = experiment: Induction of SMARCA2 degradation in human MOLM-13 cells at 10 uM measured after 72 hrs by Western blotting analysis; type: cell-based
MOLM-13 [28] = experiment: Induction of SMARCA4 degradation in human MOLM-13 cells at 10 uM measured after 72 hrs by Western blotting analysis; type: cell-based

Compound: Cc1ncsc1-c1ccc([C@H](C)NC(=O)[C@@H]2C[C@@H](O)CN2C(=O)[C@@H](NC(=O)c2ccc(-c3cc(-c4ccccc4O)nnc3N)cc2)C(C)(C)C)cc1
- IC50 (MV4-11 [1]): > 10000 nM
- IC50 (MOLM-13 [2]): > 10 µM

Compound: Cc1ncsc1-c1ccc([C@H](C)NC(=O)[C@@H]2C[C@@H](O)CN2C(=O)[C@@H](NC(=O)COc2ccc(-c3cc(-c4ccccc4O)nnc3N)cc2)C(C)(C)C)cc1
- IC50 (MV4-11 [1]): 120 nM
- IC50 (MOLM-13 [2]): 0.46 µM

Compound: Cc1ncsc1-c1ccc([C@H](C)NC(=O)[C@@H]2C[C@@H](O)CN2C(=O)[C@@H](NC(=O)CN2CCN(c3cc(-c4ccccc4O)nnc3N)CC2)C(C)(C)C)cc1
- viability at 0.1 µM (MV4-11 [3]): 24%
- Activity (MV4-11 [4]): 52.03%
- Activity (MV4-11 [5]): 22.53%
- Activity (MV4-11 [6]): 1.43%
- viability at 0.1 µM (MOLM-13 [7]): 53.7%
- Activity (MOLM-13 [8]): 39.38%
- Activity (MOLM-13 [9]): 6.71%
- Activity (MOLM-13 [10]): 0.25%
- viability at 0.3 µM (MV4-11 [11]): 19.1%
- Activity (MV4-11 [12]): 52.83%
- Activity (MV4-11 [13]): 26.43%
- Activity (MV4-11 [14]): 1.63%
- viability at 0.3 µM (MOLM-13 [15]): 21.8%
- Activity (MOLM-13 [16]): 62.09%
- Activity (MOLM-13 [17]): 15.85%
- Activity (MOLM-13 [18]): 0.31%
- viability at 1 µM (MV4-11 [19]): 18.5%
- Activity (MV4-11 [20]): 56.45%
- Activity (MV4-11 [21]): 24.02%
- Activity (MV4-11 [22]): 1.01%
- viability at 1 µM (MOLM-13 [23]): 13.9%
- Activity (MOLM-13 [24]): 58.07%
- Activity (MOLM-13 [25]): 27.77%
- Activity (MOLM-13 [26]): 0.28%

Compound: Cc1ncsc1-c1ccc([C@H](C)NC(=O)[C@@H]2C[C@@H](O)CN2C(=O)[C@@H](NC(=O)CCCc2ccc(-c3cc(-c4ccccc4O)nnc3N)cc2)C(C)(C)C)cc1
- IC50 (MV4-11 [1]): 340 nM
- IC50 (MOLM-13 [2]): 0.12 µM

Compound: Cc1ncsc1-c1ccc([C@H](C)NC(=O)[C@@H]2C[C@@H](O)CN2C(=O)[C@@H](NC(=O)Cc2ccc(-c3cc(-c4ccccc4O)nnc3N)cc2)C(C)(C)C)cc1
- IC50 (MV4-11 [1]): 240 nM
- IC50 (MOLM-13 [2]): 3.82 µM

Compound: Cc1ncsc1-c1ccc(CNC(=O)[C@@H]2C[C@@H](O)CN2C(=O)[C@@H](NC(=O)Cc2ccc(-c3cc(-c4ccccc4O)nnc3N)cc2)C(C)(C)C)cc1
- IC50 (MV4-11 [1]): 710 nM
- IC50 (MOLM-13 [2]): 2.73 µM

Compound: Cc1ncsc1-c1ccc(CNC(=O)[C@@H]2C[C@@H](O)CN2C(=O)[C@@H](NC(=O)CCCc2ccc(-c3cc(-c4ccccc4O)nnc3N)cc2)C(C)(C)C)cc1
- IC50 (MV4-11 [1]): 20 nM
- IC50 (MOLM-13 [2]): 1.45 µM

Compound: Cc1ncsc1-c1ccc(CNC(=O)[C@@H]2C[C@@H](O)CN2C(=O)[C@@H](NC(=O)C2(c3ccc(-c4cc(-c5ccccc5O)nnc4N)cc3)CC2)C(C)(C)C)cc1
- IC50 (MV4-11 [1]): 30 nM
- IC50 (MOLM-13 [2]): 0.26 µM

Compound: Cc1ncsc1-c1ccc([C@H](C)NC(=O)[C@@H]2C[C@@H](O)CN2C(=O)[C@@H](NC(=O)CSc2ccc(-c3cc(-c4ccccc4O)nnc3N)cc2)C(C)(C)C)cc1
- IC50 (MV4-11 [1]): 5750 nM
- IC50 (MOLM-13 [2]): 5.1 µM

Compound: Cc1ncsc1-c1ccc(CNC(=O)[C@@H]2C[C@@H](O)CN2C(=O)[C@@H](NC(=O)CCc2ccc(-c3cc(-c4ccccc4O)nnc3N)cc2)C(C)(C)C)cc1
- IC50 (MV4-11 [1]): 2140 nM
- IC50 (MOLM-13 [2]): 3.87 µM

Compound: Cc1ncsc1-c1ccc([C@H](C)NC(=O)[C@@H]2C[C@@H](O)CN2C(=O)[C@@H](NCc2ccc(-c3cc(-c4ccccc4O)nnc3N)cc2)C(C)(C)C)cc1
- IC50 (MV4-11 [1]): 3880 nM
- IC50 (MOLM-13 [2]): 6.85 µM

Compound: Cc1ncsc1-c1ccc(CNC(=O)[C@@H]2C[C@@H](O)CN2C(=O)[C@@H](NC(=O)COc2ccc(-c3cc(-c4ccccc4O)nnc3N)cc2)C(C)(C)C)cc1
- IC50 (MV4-11 [1]): 300 nM
- IC50 (MOLM-13 [2]): 0.85 µM

Compound: NS(=O)(=O)OC[C@@H]1C[C@@H](n2ccc3c(N[C@H]4CCc5ccccc54)ncnc32)C[C@@H]1O
- Activity (MOLM-13 [27]): Active
- Activity (MOLM-13 [28]): Active

Compound: Cc1ncsc1-c1ccc(CNC(=O)[C@@H]2C[C@@H](O)CN2C(=O)[C@@H](NC(=O)c2ccc(-c3cc(-c4ccccc4O)nnc3N)cc2)C(C)(C)C)cc1
- IC50 (MV4-11 [1]): 5070 nM
- IC50 (MOLM-13 [2]): 9.61 µM

Compound: Cc1ncsc1-c1ccc([C@H](C)NC(=O)[C@@H]2C[C@@H](O)CN2C(=O)[C@@H](NC(=O)CCc2ccc(-c3cc(-c4ccccc4O)nnc3N)cc2)C(C)(C)C)cc1
- IC50 (MV4-11 [1]): 3110 nM
- IC50 (MOLM-13 [2]): 8.73 µM

Compound: Cc1ncsc1-c1ccc(CNC(=O)[C@@H]2C[C@@H](O)CN2C(=O)[C@@H](NC(=O)CSc2ccc(-c3cc(-c4ccccc4O)nnc3N)cc2)C(C)(C)C)cc1
- IC50 (MV4-11 [1]): 5770 nM
- IC50 (MOLM-13 [2]): 7.78 µM

Compound: Cc1ncsc1-c1ccc(CNC(=O)[C@@H]2C[C@@H](O)CN2C(=O)[C@@H](NCc2ccc(-c3cc(-c4ccccc4O)nnc3N)cc2)C(C)(C)C)cc1
- IC50 (MV4-11 [1]): 4780 nM
- IC50 (MOLM-13 [2]): 4.67 µM

Compound: CC(C)C[C@H](NC(=O)[C@H](Cc1ccccc1)NC(=O)c1cnccn1)B(O)O
- Activity (MOLM-13 [27]): Active
- Activity (MOLM-13 [28]): Active
